Source: ChEMBL document CHEMBL5614459, “Conformationally Constrained Isoquinolinones as Orally Efficacious Hepatitis B Capsid Assembly Modulators” (ACS Med Chem Lett, 2024)

How the values were obtained:
Hepatitis B virus [1] = experiment: Antiviral activity against Hepatitis B virus genotype D infected in HepDE19 cells assessed as inhibition of viral replication by measuring decrease in intracellular rcDNA level by bDNA assay; type: functional, organism-based
[2] = Cytotoxicity against human HepDE19 cells by CellTiter-Glo assay; type: toxicity, cell-based
[3] = Selectivity index, ratio of CC50 for cytotoxicity against human HepDE19 cells to EC50 for antiviral activity against Hepatitis B virus genotype D infected in HepDE19 cells; type: toxicity, cell-based; details: read-out: Ratio CC50/EC50
[4] = Intrinsic clearance in mouse liver microsomes; type: ADME, Microsome; details: read-out: CLH
[5] = Intrinsic clearance in human liver microsomes; type: ADME, Microsome; details: read-out: CLH
[6] = Half life in CD-1 mouse at 10 mg/kg, po; type: ADME, organism-based; details: in vivo
[7] = Cmax in CD-1 mouse at 10 mg/kg, po; type: ADME, organism-based; details: in vivo
[8] = AUC(last) in CD-1 mouse at 10 mg/kg, po; type: ADME, organism-based; details: in vivo
[9] = Drug uptake in CD-1 mouse liver at 10 mg/kg, po or 2 mg/kg, iv measured after 24 hrs; type: ADME, organism-based; details: read-out: Drug uptake
Hepatitis B virus [10] = experiment: Anti-viral activity against Hepatitis B virus infected in mouse assessed as log10 reduction of HBV DNA levels in serum at 3 mg/kg, po qd for 7 days; type: functional; details: time 7 day
Hepatitis B virus [11] = experiment: Anti-viral activity against Hepatitis B virus infected in mouse assessed as log10 reduction of HBV DNA levels in serum at 10 mg/kg, po qd for 7 days; type: functional; details: time 7 day
Hepatitis B virus [12] = experiment: Antiviral activity against Hepatitis B virus genotype D harboring core protein-T33N mutant; type: functional, organism-based
Cytochrome P450 3A4 = Cytochrome P450 3A4 (Homo sapiens, UniProt P08684); experiment: Inhibition of CYP3A4 (unknown origin); type: ADME
Cytochrome P450 2D6 = Cytochrome P450 2D6 (Homo sapiens, UniProt P10635); experiment: Inhibition of CYP2D6 (unknown origin); type: ADME
Cytochrome P450 2C19 = Cytochrome P450 2C19 (Homo sapiens, UniProt P33261); experiment: Inhibition of CYP2C19 (unknown origin); type: ADME
Cytochrome P450 2B6 = molecular target: T1, Cytochrome P450 2B6 (Homo sapiens, UniProt P20813); experiment: Inhibition of CYP2B6 (unknown origin); type: ADME
T1 sequence (P20813 whole entry): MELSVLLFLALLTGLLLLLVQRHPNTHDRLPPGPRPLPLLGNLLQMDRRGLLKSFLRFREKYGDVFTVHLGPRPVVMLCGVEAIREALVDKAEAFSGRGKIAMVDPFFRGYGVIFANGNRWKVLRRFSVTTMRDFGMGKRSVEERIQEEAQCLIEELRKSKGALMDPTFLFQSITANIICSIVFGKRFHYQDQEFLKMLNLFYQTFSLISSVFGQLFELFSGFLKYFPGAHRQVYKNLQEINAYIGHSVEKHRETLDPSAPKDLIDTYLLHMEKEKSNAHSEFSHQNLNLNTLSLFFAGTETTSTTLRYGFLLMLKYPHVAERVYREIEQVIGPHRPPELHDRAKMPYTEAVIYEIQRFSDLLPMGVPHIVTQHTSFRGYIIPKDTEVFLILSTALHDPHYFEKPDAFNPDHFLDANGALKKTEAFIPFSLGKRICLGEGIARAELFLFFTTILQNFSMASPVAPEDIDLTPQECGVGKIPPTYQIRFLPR

[13] = Hepatitis B virus, genotype D, HepDE19

Sequence of Cytochrome P450 2C19 (P33261 whole entry): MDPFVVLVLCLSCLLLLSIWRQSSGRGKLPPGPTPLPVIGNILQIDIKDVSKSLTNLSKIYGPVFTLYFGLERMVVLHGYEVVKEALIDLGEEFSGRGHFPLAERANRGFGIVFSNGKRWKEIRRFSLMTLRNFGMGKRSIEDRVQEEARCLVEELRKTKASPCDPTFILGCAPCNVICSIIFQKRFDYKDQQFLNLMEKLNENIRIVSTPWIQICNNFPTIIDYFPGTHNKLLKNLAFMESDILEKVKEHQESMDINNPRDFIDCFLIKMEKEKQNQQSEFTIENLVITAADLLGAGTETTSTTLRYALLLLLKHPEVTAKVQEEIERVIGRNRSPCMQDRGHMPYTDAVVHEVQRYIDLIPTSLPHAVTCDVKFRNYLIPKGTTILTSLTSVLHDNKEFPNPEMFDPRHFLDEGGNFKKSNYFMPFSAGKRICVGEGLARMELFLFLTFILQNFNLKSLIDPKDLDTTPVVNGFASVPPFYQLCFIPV
Sequence of Cytochrome P450 3A4 (P08684 whole entry): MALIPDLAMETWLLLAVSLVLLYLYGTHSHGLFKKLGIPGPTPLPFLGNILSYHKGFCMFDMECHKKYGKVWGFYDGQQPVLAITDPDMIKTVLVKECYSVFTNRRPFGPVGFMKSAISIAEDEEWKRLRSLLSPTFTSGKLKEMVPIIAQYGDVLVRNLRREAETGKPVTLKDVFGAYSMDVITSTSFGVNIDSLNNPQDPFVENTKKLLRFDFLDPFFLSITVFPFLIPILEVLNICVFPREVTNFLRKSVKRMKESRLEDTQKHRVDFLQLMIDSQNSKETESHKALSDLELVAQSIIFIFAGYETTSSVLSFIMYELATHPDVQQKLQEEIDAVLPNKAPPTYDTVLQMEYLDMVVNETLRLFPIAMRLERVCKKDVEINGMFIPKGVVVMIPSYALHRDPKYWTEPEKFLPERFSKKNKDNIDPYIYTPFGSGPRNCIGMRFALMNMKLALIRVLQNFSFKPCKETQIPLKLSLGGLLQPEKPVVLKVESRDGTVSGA
Sequence of Cytochrome P450 2D6 (P10635 whole entry): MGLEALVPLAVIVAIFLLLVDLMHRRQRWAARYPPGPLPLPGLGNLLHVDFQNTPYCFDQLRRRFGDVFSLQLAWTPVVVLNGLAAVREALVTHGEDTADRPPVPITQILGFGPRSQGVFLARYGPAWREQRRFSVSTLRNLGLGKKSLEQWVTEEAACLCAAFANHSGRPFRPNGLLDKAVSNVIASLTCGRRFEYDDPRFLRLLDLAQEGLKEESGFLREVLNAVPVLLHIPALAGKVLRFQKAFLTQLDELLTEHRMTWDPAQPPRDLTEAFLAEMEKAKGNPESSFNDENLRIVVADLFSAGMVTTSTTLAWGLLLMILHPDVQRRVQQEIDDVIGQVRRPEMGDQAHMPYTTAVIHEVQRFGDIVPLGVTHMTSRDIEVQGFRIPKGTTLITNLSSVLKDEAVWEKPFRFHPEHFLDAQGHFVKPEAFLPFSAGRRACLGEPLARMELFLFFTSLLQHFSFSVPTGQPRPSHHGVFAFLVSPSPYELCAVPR

Structure (SMILES)	EC50 (Hepatitis B virus [1]; [13]) [nM]	CC50 [2] [nM]	selectivity ratio [3]	also measured
CN(C(=O)Nc1ccc(F)c(Cl)c1)C1CCCCc2[nH]c(=O)c3ccccc3c21 (racemic)	150	> 10000	> 1500	–
CN(C(=O)c1cc2ccc(F)cc2[nH]1)[C@@H]1COCc2[nH]c(=O)c3cc(F)c(F)cc3c21	9	> 10000	> 1500	microsomal CLint [4]: 44 µL/min/mg; microsomal CLint [5]: 53 µL/min/mg
CN(C(=O)Nc1ccc(F)c(C(F)F)c1)[C@@H]1COCc2[nH]c(=O)c3cc(F)c(F)cc3c21	6	> 10000	> 1500	half-life [6]: 2.9 h; Cmax [7]: 2340 ng/mL; AUC(0-t) [8]: 20800 ng·h/mL; concentration at 24 h [9]: 135 ng/g; log(activity) (Hepatitis B virus [10]): 1.68; log(activity) (Hepatitis B virus [11]): 2.68; EC50 (Hepatitis B virus [12]): 227 nM
CN(C(=O)Nc1ccc(F)c(Cl)c1)C1CCCc2[nH]c(=O)c3cc(F)c(F)cc3c21 (racemic)	–	> 10000	–	EC50 (Hepatitis B virus [1]; hepde19): 19 nM
CC(C)CN(C(=O)Nc1ccc(F)c(Cl)c1)[C@@H]1CCc2[nH]c(=O)c3ccccc3c21	7	> 10000	> 1500	–
CN(C(=O)c1cc2cccc(F)c2[nH]1)C1COCc2[nH]c(=O)c3cc(F)c(F)cc3c21 (stereo not drawn)	11	> 10000	> 1500	microsomal CLint [4]: 57 µL/min/mg; microsomal CLint [5]: 81 µL/min/mg
CN(C(=O)Nc1ccc(F)c(Cl)c1)C1CCCc2[nH]c(=O)c3cc(F)c(F)cc3c21 (stereo in doubt; 8)	–	–	–	EC50 (Hepatitis B virus [1]; hepde19): 12 nM; IC50 (Cytochrome P450 3A4): < 10000 nM; IC50 (Cytochrome P450 2D6): 4300 nM; IC50 (Cytochrome P450 2C19): < 10000 nM; IC50 (Cytochrome P450 2B6): < 10000 nM
CN(C(=O)c1cc2cc(F)ccc2[nH]1)[C@@H]1COCc2[nH]c(=O)c3cc(F)c(F)cc3c21	4	> 10000	> 1500	microsomal CLint [4]: 48 µL/min/mg; microsomal CLint [5]: 95 µL/min/mg

Second part, led by results:

EC50 (Hepatitis B virus [1]; [13]) [nM]	Structure (SMILES)	CC50 [2] [nM]	selectivity ratio [3]	also measured
31	CN(C(=O)Nc1ccc(F)c(Cl)c1)C1CCCc2[nH]c(=O)c3cc(F)ccc3c21 (racemic)	> 10000	> 1500	–
440	CN(C(=O)Nc1ccc(F)c(Cl)c1)C1CCCc2[nH]c(=O)c3c(F)c(F)ccc3c21 (racemic)	> 10000	> 1500	–
1360	CN(C(=O)Nc1ccc(F)c(Cl)c1)[C@@H]1CN(CCO)Cc2[nH]c(=O)c3cc(F)c(F)cc3c21	> 10000	> 1500	–
21	CN(C(=O)Nc1ccc(F)c(Cl)c1)[C@@H]1CSCc2[nH]c(=O)c3cc(F)c(F)cc3c21	> 10000	> 1500	microsomal CLint [4]: 112 µL/min/mg; microsomal CLint [5]: 216 µL/min/mg
510	CN(C(=O)Nc1ccc(F)c(Cl)c1)C1CCCc2[nH]c(=O)c3cc(F)cc(F)c3c21 (racemic)	> 10000	> 1500	–
180	CN1Cc2[nH]c(=O)c3cc(F)c(F)cc3c2[C@H](N(C)C(=O)Nc2ccc(F)c(Cl)c2)C1	> 10000	> 1500	–
